How the values were obtained:
Assay type in all cases: cell-based
[1] = test system: mouse embryonic fibroblasts; assay: Generation of iPS cells by retroviral Oct4 introduction during treatment with Shh or its analog, then embryonic stem cell culture conditions; details: Oct4 retrovirus three times at 16 hr intervals, treatment for 72 hrs, reprogramming process for 10-14 days
[2] = test system: adult mouse embryonic fibroblasts; assay: Establishment of iPS cells (OO-iPS-TTF #1, 2) by Oct4 introduction during treatment with oxysterol; details: oxysterol 0.1 μM and 0.5 μM with Oct4 introduction
Source text: The reprogramming method established with mouse embryonic fibroblasts was applied to adult mouse embryonic fibroblasts. […] 00-iPS-TTF #1 and 2 were positively stained with AP and found to express SSEA1, Oct4, Sox2, and Nanog as measured by immunochemical staining assays (FIG. 19A).

[3] = test system: Bmi1 expression in mouse embryonic fibroblasts; assay: Bmi1 expression by treatment with Shh or Shh analog (RT-PCR of downstream genes) under neural stem cell-culturing conditions; details: for expression of Gli1 and Bmi1 (RT-PCR) / expression of the Bmi1 target genes p16^Ink4a and p19^Arf (RT-PCR): DMEM/F12+B27+N2+bFGF+EGF; for Sox2 expression level: culture condition for neural stem cells
Protocol: Mouse embryonic fibroblasts were employed to generate embryonic stem cell-like cells. Embryos were taken from CF1 strain mice on embryonic day 13.5. Cells were cultured in DMEM (high glucose, w/o sodium pyruvate) supplemented with 10% FBS (Fetal bovine serum), 0.1 mM non-essential amino acid, 1% penicillin/streptomycin and 0.1 mM β-mercaptoethanol in tissue culture flasks, after which fibroblasts at the 3rd passage were seeded at a density of 2×10^5 cells/well into 6-well plates.
(§1) The fibroblasts prepared in Example 1 were examined for Bmi1 expression when they were treated with Shh or an analog thereof, such as oxysterol or purmorphamine. FIGS. 9A, 14A and 22A are RT-PCR results showing the effect of Shh (Sonic hedgehog), known as an upstream regulator of Bmi1, or its analogs on the expression of genes downstream thereof.

[4] = test system: mouse embryonic fibroblasts; assay: Reprogramming of treated fibroblasts into neural stem cell-like cells (morphology, AP staining, immunochemistry); details: neural stem cell-culturing conditions, immunochemistry for SSEA1, Nestin, Sox2
Protocol: as §1
The induced neural stem cell-like cells were positively analyzed by AP staining and immunochemistry for SSEA1, Nestin and Sox2 (FIGS. 9C, 14C and 22C).

[5] = 0.1 μM and 0.5 μM of hydroxycholesterol
[6] = 0.5 μM or 1 μM of purmorphamine

Structure (SMILES)	appearance of ES cell-like colonies [1]	derivation of embryonic stem cell-like cells from adult fibroblasts [2]	expression of Gli1 and Bmi1 (RT-PCR) [3, 5]	expression of the Bmi1 target genes p16^Ink4a and p19^Arf (RT-PCR) [3, 5]	Sox2 expression level [3]	morphology and neural stem cell markers of the treated cells [4]	expression of Gli1 and Bmi1 (RT-PCR) [3, 6]	expression of the Bmi1 target genes p16^Ink4a and p19^Arf (RT-PCR) [3, 6]
C[C@H](CCCC(C)(C)O)[C@H]1CC[C@H]2[C@@H]3CC=C4C[C@@H](O)CC[C@]4(C)[C@H]3CC[C@]12C [hydroxycholesterol, 25-hydroxycholesterol]	colonies appeared with the same morphology as ES cells	allowed the derivation of embryonic stem cell-like cells	upregulation	downregulation	increase	morphology similar to that of neural stem cells and express nestin and sox2		
c1ccc2c(Oc3nc(Nc4ccc(N5CCOCC5)cc4)c4ncn(C5CCCCC5)c4n3)cccc2c1 [purmorphamine, 2-(1-Naphthoxy)-6-(4-morpholinoanilino)-9-cyclohexylpurine]	colonies appeared with the same morphology as ES cells				increase	morphology similar to that of neural stem cells and express nestin and sox2	upregulation	downregulation
